Experimental data taken from patent publication US10632125B2, “MTH1 inhibitors for treatment of inflammatory and autoimmune conditions” (THOMAS HELLEDAYS STIFTELSE FÖR MEDICINSK FORSKNING, priority 2014, dated 2020).
pIC50: −log10 of the molar value.

molecular target: MTH1 (Homo sapiens, UniProt P36639); assay: MTH1 enzymatic assay (malachite green, coupled to pyrophosphatase); format: biochemical; conditions: dGTP 100 μM, MTH1 6 nM; 96- or 384-well format; read-out: IC50

pIC50, > 6.70:
C#CC(=O)Nc1cccc(-c2cc(NC)nc(N)n2)c1 [Example 314, N-{3-[2-Amino-6-(methylamino)pyrimidin-4-yl]phenyl}prop-2-ynamide]
CNc1cc(-c2cccc(NC(=O)c3cc(Cl)ccc3O)c2)nc(N)n1 [Example 321, N-{3-[2-Amino-6-(methylamino)pyrimidin-4-yl]phenyl}-5-chloro-2-hydroxybenzamide]
CNc1cc(-c2cccc(NC(=O)CCC(=O)N3CCCC3)c2)nc(N)n1 [Example 325, N-{3-[2-Amino-6-(methylamino)pyrimidin-4-yl]phenyl}-4-oxo-4-(pyrrolidin-1-yl)butanamide]
CNc1cc(-c2cccc(CN)c2)nc(N)n1 [Example 328, 6-[3-(Aminomethyl)phenyl]-4-N-methylpyrimidine-2,4-diamine]
Cc1nc(CCNc2cc(-c3cccc(C)c3C)nc(N)n2)n[nH]1 [Example 332, 6-(2,3-Dimethylphenyl)-4-N-[2-(5-methyl-1H-1,2,4-triazol-3-yl)ethyl]pyrimidine-2,4-diamine]
Cc1cccc(-c2cc(NCCn3ccccc3=O)nc(N)n2)c1C [Example 337, 1-(2-{[2-Amino-6-(2,3-dimethylphenyl)pyrimidin-4-yl]amino}ethyl)-1,2-dihydropyridin-2-one]
Cc1cccc(-c2cc(NCc3ccc[nH]c3=O)nc(N)n2)c1C [Example 338, 3-({[2-Amino-6-(2,3-dimethylphenyl)pyrimidin-4-yl]amino}methyl)-1,2-dihydropyridin-2-one]
Cc1cccc(-c2cc(NCCc3cccc(Cl)c3)nc(N)n2)c1C [Example 341, 4-N-[2-(3-Chlorophenyl)ethyl]-6-(2,3-dimethylphenyl)pyrimidine-2,4-diamine]
Cc1cccc(-c2cc(NCCCn3ccnc3)nc(N)n2)c1C [Example 342, 6-(2,3-Dimethylphenyl)-4-N-[3-(1H-imidazol-1-yl)propyl]pyrimidine-2,4-diamine]
Cc1cccc(-c2cc(NCCc3ccc(F)cc3)nc(N)n2)c1C [Example 344, 6-(2,3-Dimethylphenyl)-4-N-[2-(4-fluorophenyl)ethyl]pyrimidine-2,4-diamine]
Cc1cccc(-c2cc(NCCc3scnc3C)nc(N)n2)c1C [Example 352, 6-(2,3-Dimethylphenyl)-4-N-[2-(4-methyl-1,3-thiazol-5-yl)ethyl]pyrimidine-2,4-diamine]
Cc1cccc(-c2cc(NCC3CCCN(c4ccccn4)C3)nc(N)n2)c1C (stereo not shown) [Example 355, 6-(2,3-Dimethylphenyl)-4-N-{[1-(pyridin-2-yl)piperidin-3-yl]methyl}pyrimidine-2,4-diamine]
Cc1cccc(-c2cc(NCc3cnn(-c4ccccc4)n3)nc(N)n2)c1C [Example 356, 6-(2,3-Dimethylphenyl)-4-N-[(2-phenyl-2H-1,2,3-triazol-4-yl)methyl]pyrimidine-2,4-diamine]
Cc1cccc(-c2cc(NCCCNS(=O)(=O)c3ccc(Cl)cc3)nc(N)n2)c1C [Example 357, N-(3-{[2-Amino-6-(2,3-dimethylphenyl)pyrimidin-4-yl]amino}propyl)-4-chlorobenzene-1-sulfonamide]
Cc1cccc(-c2cc(NCCCNC(=O)Nc3ccc(F)c(F)c3)nc(N)n2)c1C [Example 362, 3-(3-{[2-Amino-6-(2,3-dimethylphenyl)pyrimidin-4-yl]amino}propyl)-1-(3,4-difluorophenyl)urea]
Cc1cc2cc(CNc3cc(-c4cccc(C)c4C)nc(N)n3)ccc2[nH]1 [Example 364, 6-(2,3-Dimethylphenyl)-4-N-[(2-methyl-1H-indol-5-yl)methyl]pyrimidine-2,4-diamine]
Cc1cccc(-c2cc(NCCCCNC(=O)OC(C)(C)C)nc(N)n2)c1C [Example 370, tert-Butyl N-(4-{[2-amino-6-(2,3-dimethylphenyl)pyrimidin-4-yl]amino}butyl)-carbamate]
Cc1cccc(-c2cc(NCCCCCNC(=O)OC(C)(C)C)nc(N)n2)c1C [Example 371, tert-Butyl N-(5-{[2-amino-6-(2,3-dimethylphenyl)pyrimidin-4-yl]amino}pentyl)-carbamate]
Cc1cccc(-c2cc(NCCCNS(=O)(=O)c3ccc(S(C)(=O)=O)cc3)nc(N)n2)c1C [Example 375, N-(3-{[2-Amino-6-(2,3-dimethylphenyl)pyrimidin-4-yl]amino}propyl)-4-methanesulfonylbenzene-1-sulfonamide]
CC(=O)Nc1ccc(S(=O)(=O)NCCCNc2cc(-c3cccc(C)c3C)nc(N)n2)cc1 [Example 382, N-{4-[(3-{[2-Amino-6-(2,3-dimethylphenyl)pyrimidin-4-yl]amino}propyl)sulfamoyl]-phenyl}acetamide]
COc1ccc(S(=O)(=O)NCCNc2cc(-c3cccc(C)c3C)nc(N)n2)cc1 [Example 385, N-(2-{[2-Amino-6-(2,3-dimethylphenyl)pyrimidin-4-yl]amino}ethyl)-4-methoxybenzene-1-sulfonamide]
Cc1cccc(-c2cc(NCCCNS(=O)(=O)c3cc(Cl)c(Cl)s3)nc(N)n2)c1C [Example 388, N-(3-{[2-Amino-6-(2,3-dimethylphenyl)pyrimidin-4-yl]amino}propyl)-4,5-dichlorothiophene-2-sulfonamide]
Cc1cccc(-c2cc(NCCNc3nc4ccccc4o3)nc(N)n2)c1C [Example 393, 4-N-{2-[(1,3-Benzoxazol-2-yl)amino]ethyl}-6-(2,3-dimethylphenyl)pyrimidine-2,4-diamine]
Cc1cccc(-c2cc(NC(C)CCc3ccccc3)nc(N)n2)c1C (stereo not shown) [Example 394, 6-(2,3-Dimethylphenyl)-4-N-(4-phenylbutan-2-yl)pyrimidine-2,4-diamine]
Cc1cccc(-c2cc(NCCNc3nc(Br)ns3)nc(N)n2)c1C [Example 398, 4-N-{2-[(3-Bromo-1,2,4-thiadiazol-5-yl)amino]ethyl}-6-(2,3-dimethylphenyl)pyrimidine-2,4-diamine]
Cc1cccc(-c2cc(NCCc3nnc(-c4ccc(F)cc4)o3)nc(N)n2)c1C [Example 400, 6-(2,3-Dimethylphenyl)-4-N-{2-[5-(4-fluorophenyl)-1,3,4-oxadiazol-2-yl]ethyl}pyrimidine-2,4-diamine]
Cc1cccc(-c2cc(NCCNS(=O)(=O)c3ccc(S(C)(=O)=O)cc3)nc(N)n2)c1C [Example 401, N-(2-{[2-Amino-6-(2,3-dimethylphenyl)pyrimidin-4-yl]amino}ethyl)-4-methanesulfonylbenzene-1-sulfonamide]
Cc1nc(CCNc2cc(-c3cccc(Cl)c3C)nc(N)n2)n[nH]1 [Example 412, 6-(3-chloro-2-methylphenyl)-4-N-[2-(5-methyl-1H-1,2,4-triazol-3-yl)ethyl]pyrimidine-2,4-diamine]
